For data set [1] the following is noted: dog, in vivo, po, 25 mg/kg.
Description: (§1) For each of ulipristal acetate samples obtained in Examples and Comparative Example, the absorption test was performed as follows. The ulipristal acetate was filled into a gelatin capsule shell (manufacturer: Qualicaps Co., Ltd., size: No. 00, lot: C0079A) to produce a capsule. The capsule was orally administered to 6 female dogs at a dose of 25 mg/kg (in terms of ulipristal acetate). The blood was collected 0.5, 1, 2, 4, 6, 24, and 48 hours after the oral administration. Then the sample was centrifuged to give a plasma. The concentration of the ulipristal acetate in the plasma was measured by a LC-MS/MS (liquid chromatography-tandem mass spectrometry) method, and the elimination half-life (T112), the time to the maximum plasma concentration (Tmax), the maximum plasma concentration (Cmax), the area under the plasma concentration-time curve (AUC), and the mean residence time (MRT) were calculated. The capsule was administered to each female dog twice at dosing intervals (washout period) of one week by crossover method.
A short description of another data set: Absorption test in dog. Particulars: female dogs, oral capsule, 25 mg/kg.
A short description of data set [2]: Solubility in ethanol/water (10/90) mixed solvent at 37° C. The following applies: ethanol/water (volume ratio)=10/90, 37° C., stirred 5 minutes, HPLC.
Description: [Solubility] For each of ulipristal acetate samples obtained in Examples and Comparative Example, the solubility was determined as follows. The ulipristal acetate (40 mg) was added to 40 mL of a mixed solvent containing ethanol and water [ethanol/water (volume ratio)=10/90] having a temperature of 37° C. to prepare a test sample. The test sample was stirred by a magnetic stirrer for 5 minutes. Then a portion of the suspension was separated. The solid of the separated portion was filtered out, and the ulipristal acetate content of the residue was quantitatively determined using a high-performance liquid chromatography (column: ODS, column temperature: 40° C., eluate: 0.1% trifluoroacetic acid aqueous solution/acetonitrile mixture (volume ratio 3:2), rate of flow: 1.0 mL/minute, detection: UV 302 nm), and the solubility was calculated.

Like-named read-outs stand apart in the source and are kept apart here.

What is called Cmax is the highest concentration seen after dosing. For orientation: Tmax means the time at which the peak concentration occurs. By Solubility is commonly meant the concentration that dissolves in the medium under given conditions.

Description for Absorption test in dog: as §1

With `CC(=O)O[C@]1(C(C)=O)CCC2C3CCC4=CC(=O)CCC4=C3[C@@H](c3ccc(N(C)C)cc3)C[C@@]21C` (stereo partly drawn) [Comparative Example, 17alpha-acetoxy-11beta-(4-N,N-dimethylaminophenyl)-19-norpregna-4,9-diene-3,20-dione], in data set [1], the AUC0-inf was 9390.7 ng·h/mL, the AUC0-t amounted to 8447.4 ng·h/mL, the Cmax worked out at 1490.7 ng/mL and the MRTinf stood at 16.6 h. Further, in data set [1], the MRTlast is 11.8 h, the T1/2 amounted to 14.9 h and the Tmax turned out to be 1.8 h.

As for `CC(=O)O[C@]1(C(C)=O)CCC2C3CCC4=CC(=O)CCC4=C3[C@@H](c3ccc(N(C)C)cc3)C[C@@]21C` (stereo partly drawn) [Example 1, 17alpha-acetoxy-11beta-(4-N,N-dimethylaminophenyl)-19-norpregna-4,9-diene-3,20-dione], in the data set “Absorption test in dog” (plasma, LC-MS/MS), the AUC0-inf turned out to be 18078.4 ng·h/mL, the AUC0-t was 12194.3 ng·h/mL, the Cmax was 2200.2 ng/mL and the MRTinf came out at 37.7 h. Moreover, in the data set “Absorption test in dog” (plasma, LC-MS/MS), the MRTlast is 11.7 h, the T1/2 was 37.3 h and the Tmax is 1.2 h. Besides, the “Pharmacokinetics compared with Comparative Example (in words)” value in the data set “Absorption test in dog” (summary of Table 5) is reported as “excellent pharmacokinetics”. In addition, the Solubility in data set [2] turned out to be 11.2 µg/mL.

The values are drawn from patent US9643993B2, “Crystalline polymorphic form of ulipristal acetate” (ASKA PHARMACEUTICAL CO., LTD., priority 2012, dated 2017).
